Results taken from paper PMC10657444, “Design and evaluation of tadpole-like conformational antimicrobial peptides” (Communications Biology, 2023).
≈ marks a conversion by molar mass, not a printed value. Where “and” joins values, the source holds several entries; their conditions need not be identical. Identical values can stand only once. Like-named read-outs stand apart in the source and are kept apart here. Residues, ends and D or L forms follow the SMILES beside them.

Assays:
[1] = system: MRSA USA 300; format: cell-based, Staphylococcus aureus
Experimental: (§1) The stability of peptides in different media was assessed using the MIC assay described above. Here, the stability of HT2 and RI-HT2 in serum, salt, and different pH were analyzed using methods previously described with some modifications. For serum stability, a solution of 10% or 20% fetal bovine serum (FBS) was made by diluting fetal bovine serum with phosphate buffer saline (PBS). HT2 and RI-HT2 were added for a final concentration of 160 µg/mL of peptide in the FBS solution, and incubation 2 h. Suspension containing no peptide was considered the negative control. The MIC of HT2 and RI-HT2 against MRSA USA 300 and K. pneumoniae ATCC 700603 were measured. For the acid stability assays, the peptides were incubated with different pH values of PBS (pH = 5.5 or 6.4) at 37 °C. These peptide mixtures were then serially diluted in a 96-well plate for the evaluation of antimicrobial activity against bacterial strains. Similarly, for salt stability, the peptides were assessed for their antimicrobial activity against MRSA USA 300 and K. pneumoniae ATCC 700603 in the presence of 150 mM NaCl.

[2] = system: K. pneumoniae ATCC 700603; assay: Membrane permeability, SYTOX Green; format: cell-based, Klebsiella pneumoniae
Experimental: (§2) Fluorescent probe SYTOX^TM Green (Invitrogen/ Life Technologies, S7020) was used to analyze the effect of HT2 and RI-HT2 on membrane permeability of MRSA USA 300 and K. pneumoniae ATCC 700603 as described elsewhere. SYTOX^TM Green is a DNA binding dye that is fluorescent when bound to nucleic acids and only enters cells with compromised plasma membranes. MRSA USA 300 and K. pneumoniae ATCC 700603 were cultured in LB broth to mid log phase at 37 °C and washed with PBS and resuspended (OD595 ≈ 0.1) in the same buffer. SYTOX^TM Green was added into the cell suspension with a final concentration of 5 μM and being kept in dark for 20 min. 98 µL pre-treated cell suspension was transferred into wells of 96-well glass black plates. Then, 2 µL of compound or DMSO were added to initiate the reaction. The final concentrations of HT2 and RI-HT2 were 1 ×, 2 ×, 4 × and 8 × MIC. Fluorescence strength was measured with excitation/emission wavelength of 485/528 nm every 5 min for 60 min.

[3] = system: MRSA USA 300; assay: Membrane depolarization assay, DiSC3(5); format: cell-based, Staphylococcus aureus
Experimental: MRSA USA 300 and K. pneumoniae ATCC 700603 were inoculated into 5 mL of LB and shaken at 37°C and 225 rpm to OD600 ≈ 0.5 (i.e., mid-logarithmic phase). Bacteria were collected by centrifugation at 8000 rpm for 5 min, and washed twice with assay buffer (5 mM HEPES, 20 mM glucose, 10 mM KCl, pH 7.2). Bacteria were resuspended in the assay buffer to OD595 ≈ 0.1. DiSC3(5) was added to the cells at final concentration of 0.3 µM, wrapped with aluminum foil, and incubated at 37°C, until a stable fluorescence was observed. Two microliter of compound or DMSO were transferred into 96-well black walled polystyrene plates, to which was added 98 µL per well of the dye-saturated bacterial cells to initiate the reaction. The final concentration of HT2 and RI-HT2 were 1 ×, 2 ×, 4 × and 8 × MIC. Plates were immediately read on an Envison at λex = 622 nm/ λem = 670 nm with a kinetic program (reading every 1 min for 10 min) until the maximal intensity achieved was observed.

[4] = system: MRSA USA 300; assay: Membrane permeability, SYTOX Green; format: cell-based, Staphylococcus aureus
Experimental: as §2

[5] = system: K. pneumoniae ATCC 700603; format: cell-based, Klebsiella pneumoniae
Experimental: as §1

CC[C@H](C)[C@H](NC(=O)[C@H](CCCNC(=N)N)NC(=O)[C@H](CCCNC(=N)N)NC(=O)[C@H](CC(C)C)NC(=O)[C@H](Cc1ccccc1)NC(=O)[C@@H](N)CCCNC(=N)N)C(=O)N[C@@H](Cc1ccccc1)C(=O)N[C@@H](Cc1ccccc1)C(=O)N[C@@H](Cc1ccccc1)C(=O)N[C@@H](Cc1ccccc1)C(N)=O [HT2] (H-RFLRRIFFFF-NH2)
MIC against MRSA USA 300 ([1]; USA 300): 3.13 µM (≈ 4.53 µg/mL)
MIC against MRSA USA 300 ([1]; USA 300, pH 5.5): 3.13 µM (≈ 4.53 µg/mL)
MIC against MRSA USA 300 ([1]; USA 300, pH 6.4): 3.13 µM (≈ 4.53 µg/mL)
Fluorescence intensity ([2]; 2 × MIC, time 0 min): 501695 and 509033 and 502622
Fluorescence intensity ([2]; 2 × MIC, time 5 min): 1090890 and 1043729 and 1064139
Fluorescence intensity ([2]; 2 × MIC, time 10 min): 1729072 and 1765938 and 1671967
Fluorescence intensity ([2]; 2 × MIC, time 15 min): 2450918 and 2522662 and 2381578
Fluorescence intensity ([2]; 2 × MIC, time 20 min): 3050480 and 3158194 and 2985766
Fluorescence intensity ([2]; 2 × MIC, time 25 min): 3669210 and 3714426 and 3535044
Fluorescence intensity ([2]; 2 × MIC, time 30 min): 4083450 and 4189312 and 4054249
Fluorescence intensity ([2]; 2 × MIC, time 35 min): 4565952 and 4682018 and 4543315
Fluorescence intensity ([2]; 4 × MIC, time 0 min): 525974 and 544262 and 540364
Fluorescence intensity ([2]; 4 × MIC, time 5 min): 1702985 and 1566300 and 1596913
Fluorescence intensity ([2]; 4 × MIC, time 10 min): 2584709 and 2629728 and 2589896
Fluorescence intensity ([2]; 4 × MIC, time 15 min): 4158305 and 4176033 and 4135763
Fluorescence intensity ([2]; 4 × MIC, time 20 min): 5327990 and 5380046 and 5341458
Fluorescence intensity ([2]; 4 × MIC, time 25 min): 6471332 and 6483549 and 6409400
Fluorescence intensity ([2]; 4 × MIC, time 30 min): 7570513 and 7493394 and 7434627
Fluorescence intensity ([2]; 4 × MIC, time 35 min): 8228675 and 8284610 and 8343092
Fluorescence intensity ([2]; 8 × MIC, time 0 min): 870465 and 760375 and 885415
Fluorescence intensity ([2]; 8 × MIC, time 5 min): 1479590 and 1252173 and 1198504
Fluorescence intensity ([2]; 8 × MIC, time 10 min): 2304082 and 2051490 and 2261553
Fluorescence intensity ([2]; 8 × MIC, time 15 min): 3691170 and 2983585 and 3730581
Fluorescence intensity ([2]; 8 × MIC, time 20 min): 5088194 and 4586923 and 5243088
Fluorescence intensity ([2]; 8 × MIC, time 25 min): 6892750 and 6059584 and 6984752
Fluorescence intensity ([2]; 8 × MIC, time 30 min): 8250478 and 7253838 and 8382724
Fluorescence intensity ([2]; 8 × MIC, time 35 min): 8870007 and 7712378 and 8970308
Fluorescence intensity ([2]; 8 × MIC, time 40 min): 10334018
Fluorescence intensity ([2]; MIC, time 0 min): 550162 and 549500 and 565924
Fluorescence intensity ([2]; MIC, time 5 min): 788019 and 747687 and 700922
Fluorescence intensity ([2]; MIC, time 10 min): 953632 and 962086 and 882779
Fluorescence intensity ([2]; MIC, time 15 min): 1211256 and 1113347 and 1136029
Fluorescence intensity ([2]; MIC, time 20 min): 1429978 and 1306982 and 1354221
Fluorescence intensity ([2]; MIC, time 25 min): 1431312 and 1479927 and 1452172
Fluorescence intensity ([2]; MIC, time 30 min): 1813062 and 1687978 and 1751083
Fluorescence intensity ([2]; MIC, time 35 min): 1966664 and 1821317 and 1900107
Fluorescence intensity ([2]; MIC, time 40 min): 2166119 and 2083647 and 2111537
time to highest SYTOX Green fluorescence intensity ([2]; dose-dependent): ≤ 40 min
concentration at which DiSC3(5) fluorescence intensity changed significantly [3]: 4 × MIC
Fluorescence intensity ([4]; 2 × MIC, time 25 min): 31855 and 32475 and 30920
Fluorescence intensity ([4]; 2 × MIC, time 30 min): 32738 and 33363 and 31902
Fluorescence intensity ([4]; 2 × MIC, time 35 min): 33433 and 34141 and 32365
Fluorescence intensity ([4]; 2 × MIC, time 40 min): 33952 and 34791 and 32993
Fluorescence intensity ([4]; 2 × MIC, time 45 min): 34234 and 35153 and 33304
Fluorescence intensity ([4]; 2 × MIC, time 50 min): 34616 and 35530 and 33726
Fluorescence intensity ([4]; 2 × MIC, time 55 min): 35021 and 36015 and 33983
Fluorescence intensity ([4]; 2 × MIC, time 60 min): 35210 and 36080 and 33852
Fluorescence intensity ([4]; 4 × MIC, time 25 min): 58334 and 57993 and 60104
Fluorescence intensity ([4]; 4 × MIC, time 30 min): 59686 and 59179 and 61418
Fluorescence intensity ([4]; 4 × MIC, time 35 min): 60470 and 60307 and 62172
Fluorescence intensity ([4]; 4 × MIC, time 40 min): 61373 and 61097 and 62778
Fluorescence intensity ([4]; 4 × MIC, time 45 min): 61952 and 61758 and 63164
Fluorescence intensity ([4]; 4 × MIC, time 50 min): 62152 and 62388 and 63395
Fluorescence intensity ([4]; 4 × MIC, time 55 min): 62374 and 62948 and 63676
Fluorescence intensity ([4]; 4 × MIC, time 60 min): 62761 and 62954 and 64070
Fluorescence intensity ([4]; 8 × MIC, time 0 min): 1486
Fluorescence intensity ([4]; 8 × MIC, time 25 min): 61022 and 63005 and 63531
Fluorescence intensity ([4]; 8 × MIC, time 30 min): 61916 and 63588 and 64175
Fluorescence intensity ([4]; 8 × MIC, time 35 min): 62425 and 64473 and 64696
Fluorescence intensity ([4]; 8 × MIC, time 40 min): 62708 and 64561 and 64714
Fluorescence intensity ([4]; 8 × MIC, time 45 min): 62984 and 64891 and 65072
Fluorescence intensity ([4]; 8 × MIC, time 50 min): 63293 and 64293 and 63594
Fluorescence intensity ([4]; 8 × MIC, time 55 min): 63589 and 64553 and 65531
Fluorescence intensity ([4]; 8 × MIC, time 60 min): 63666 and 65987 and 65753
Fluorescence intensity ([4]; MIC, time 0 min): 1304 and 1201 and 1387
Fluorescence intensity ([4]; MIC, time 25 min): 17216 and 17215 and 16315
Fluorescence intensity ([4]; MIC, time 30 min): 17367 and 17359 and 16618
Fluorescence intensity ([4]; MIC, time 35 min): 17590 and 17525 and 16584
Fluorescence intensity ([4]; MIC, time 40 min): 17600 and 17633 and 16680
Fluorescence intensity ([4]; MIC, time 45 min): 17644 and 17567 and 16788
Fluorescence intensity ([4]; MIC, time 50 min): 17792 and 17686 and 16728
Fluorescence intensity ([4]; MIC, time 55 min): 17738 and 17641 and 16766
Fluorescence intensity ([4]; MIC, time 60 min): 17754 and 17734 and 16661
time to maximum SYTOX Green fluorescence intensity ([4]; different concentrations): ≤ 10 min
MIC against K. pneumoniae ATCC 700603 ([5]; 150 mM NaCl): 12.5 µM (≈ 18.1 µg/mL)
MIC against K. pneumoniae ATCC 700603 ([5]; 10% FBS): 6.25 µM (≈ 9.05 µg/mL)
MIC against K. pneumoniae ATCC 700603 ([5]; 20% FBS): 6.25 µM (≈ 9.05 µg/mL)
MIC against K. pneumoniae ATCC 700603 ([5]; Normal medium): 6.25 µM (≈ 9.05 µg/mL)
MIC against K. pneumoniae ATCC 700603 ([5]; pH 5.5): 12.5 µM (≈ 18.1 µg/mL)
MIC against K. pneumoniae ATCC 700603 ([5]; pH 6.4): 6.25 µM (≈ 9.05 µg/mL)
